From patent US12233161B1, “Lipids and lipid nanoparticle formulations” (LONGUIDE BIOPHARMA CORPORATION, priority 2024, dated 2025)
Values belong to the compound of their own block, whether it stands above or below them.

Assays:
[1] = Potential characterization of nucleic acid lipid nanoparticle preparations; assay type: physicochemical
How it was run: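 Nanoparticles (about 0.04 mg/mL mRNA) were diluted in ultrapure water for Malvern ZEN3700 measurement: 20 μL into 780 μL for potential alone, or 27.5 μL into 200 μL for DLS particle size followed by addition of 600 μL water for potential.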

mice [2] = test: In vivo delivery of FLuc-circ-RNA lipid nanoparticles in mice; settings: Fluc-circ-RNA LNP; for IVIS: organ not given
Procedure: Lipid nanoparticles loaded with nucleic acid drugs were prepared according to step 2, replacing FLuc-mRNA with FLuc-circ-RNA (Hongene Biotech Corporation, Shanghai). After formulation, the nanoparticles were administered via intramuscular injection (into the quadriceps femoris muscle of mice), intravenous injection (into the tail vein of mice), intraperitoneal injection, or subcutaneous injection (subcutaneously on the back). Approximately 75 μL was injected per mouse, with a total of 3 mice per group. In vivo imaging (PerkinElmer, IVIS Lumina III) was performed after a certain period of time. Ten to fifteen minutes before imaging, 200 μL of a 15 mg/mL D-Luciferin working solution was injected intraperitoneally, followed by imaging analysis using the in vivo imaging system.

[3] = Particle size and PDI of nucleic acid lipid nanoparticle preparations by dynamic light scattering; assay type: physicochemical
How it was run: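 Nanoparticle suspension (about 0.04 mg/mL mRNA) diluted in ultrapure water, mixed by gentle pipetting; particle size measured by dynamic light scattering. Zeta potential measured on the recovered sample after further dilution in ultrapure water.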

mice [4] = test: In vivo delivery of FLuc-mRNA lipid nanoparticles in mice, in vivo imaging (IVIS); settings: for tissue-targeting specificity (lung vs spleen depending on molar percentage of compound): certain formulations, Table 2
How it was run: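 Mice (n=3) received about 75 μL FLuc-mRNA LNP per mouse intramuscularly (rectus femoris), intravenously (tail vein), intraperitoneally or subcutaneously (back). After injection, D-luciferin (200 μL, 15 mg/mL) was given i.p. 10-15 min before IVIS imaging.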

[5] = Fluc-circ-RNA LNP, preparation given IV
[6] = DMG-PEG2000:DSPC:Chol:Lipid 1.00:11.50:22.50:65.00, N/P 65, mRNA LNP
[7] = DMG-PEG2000:DSPC:Chol:Lipid 1.00:16.00:48.00:35.00, N/P 18, mRNA LNP
[8] = DMG-PEG2000:DSPC:Chol:Lipid 1.00:16.00:48.00:35.00, N/P 30, mRNA LNP
[9] = DMG-PEG2000:DSPC:Chol:Lipid 1.47:11.16:38.97:48.40, N/P 30, mRNA LNP
[10] = DMG-PEG2000:DSPC:Chol:Lipid 1.00:11.50:22.50:65.00, N/P 65, IV, liver
[11] = DMG-PEG2000:DSPC:Chol:Lipid 1.00:11.50:22.50:65.00, N/P 65, IV, lung
[12] = DMG-PEG2000:DSPC:Chol:Lipid 1.00:11.50:22.50:65.00, N/P 65, IV, spleen
[13] = DMG-PEG2000:DSPC:Chol:Lipid 1.00:16.00:48.00:35.00, N/P 18, IV, liver
[14] = DMG-PEG2000:DSPC:Chol:Lipid 1.00:16.00:48.00:35.00, N/P 18, IV, lung
[15] = DMG-PEG2000:DSPC:Chol:Lipid 1.00:16.00:48.00:35.00, N/P 18, IV, spleen
[16] = DMG-PEG2000:DSPC:Chol:Lipid 1.00:16.00:48.00:35.00, N/P 30, IV, liver
[17] = DMG-PEG2000:DSPC:Chol:Lipid 1.00:16.00:48.00:35.00, N/P 30, IV, lung
[18] = DMG-PEG2000:DSPC:Chol:Lipid 1.00:16.00:48.00:35.00, N/P 30, IV, spleen
[19] = mRNA LNP, 1.00:4.00:30.00:65.00, N/P 30
[20] = mRNA LNP, 1.40:11.15:38.95:48.50, N/P 30
[21] = mRNA LNP, 1.00:4.00:30.00:65.00, N/P 30, IV, liver
[22] = mRNA LNP, 1.00:4.00:30.00:65.00, N/P 30, IV, lung
[23] = mRNA LNP, 1.00:4.00:30.00:65.00, N/P 30, IV, spleen
[24] = mRNA LNP, 1.40:11.15:38.95:48.50, N/P 30, IV, liver
[25] = mRNA LNP, 1.40:11.15:38.95:48.50, N/P 30, IV, lung
[26] = mRNA LNP, 1.40:11.15:38.95:48.50, N/P 30, IV, spleen
[27] = DMG-PEG2000:DSPC:Chol:Lipid 1.40:11.15:38.95:48.50, N/P 10, mRNA LNP, preparation given IH
[28] = DMG-PEG2000:DSPC:Chol:Lipid 1.40:11.15:38.95:48.50, N/P 10, mRNA LNP, preparation given IV
[29] = Fluc-circ-RNA LNP, preparation given IM
[30] = DMG-PEG2000:DSPC:Chol:Lipid 1.40:11.15:38.95:48.50, N/P 10, IV, liver
[31] = DMG-PEG2000:DSPC:Chol:Lipid 1.40:11.15:38.95:48.50, N/P 10, IV, lung
[32] = DMG-PEG2000:DSPC:Chol:Lipid 1.40:11.15:38.95:48.50, N/P 10, IV, spleen

Zeta potential (mV) [1, 5]: 15.53 mV
PDI [3, 6]: 0.22 ± 0.01
Particle size [3, 6]: 145.43 ± 1.37 nm
PDI [3, 7]: 0.16 ± 0.03
Particle size [3, 7]: 135.90 ± 1.28 nm
PDI [3, 8]: 0.18 ± 0.02
Particle size [3, 8]: 137.37 ± 1.50 nm
PDI [3, 9]: 0.24 ± 0.02
Particle size [3, 9]: 93.36 ± 1.24 nm
PDI [3, 5]: 0.16
Particle size (nm) [3, 5]: 128.4 nm
Compound: CCCCCCCCCCCCOC(=O)C(O)CN(CCN(C)CCN(CC(O)C(=O)OCCCCCCCCCCCC)CC(O)C(=O)OCCCCCCCCCCCC)CC(O)C(=O)OCCCCCCCCCCCC (stereo not shown) [Compound L0262]
% of organ targeting (mice [2]; IV, liver): 3.78%
% of organ targeting (mice [2]; IV, lung): 8.14%
% of organ targeting (mice [2]; IV, spleen): 88.08%
IVIS (mice [4]; DMG-PEG2000:DSPC:Chol:Lipid 1.00:11.50:22.50:65.00, N/P 65, IV, body): 2.54 × 10^7
% of organ targeting (mice [4]; [10]): 1.47%
IVIS (mice [4]; [10]): 1.32 × 10^6
% of organ targeting (mice [4]; [11]): 85.62%
IVIS (mice [4]; [11]): 7.69 × 10^7
% of organ targeting (mice [4]; [12]): 12.91%
IVIS (mice [4]; [12]): 1.16 × 10^7
IVIS (mice [4]; DMG-PEG2000:DSPC:Chol:Lipid 1.00:16.00:48.00:35.00, N/P 18, IV, body): 1.06 × 10^8
% of organ targeting (mice [4]; [13]): 5.38%
IVIS (mice [4]; [13]): 5.61 × 10^6
% of organ targeting (mice [4]; [14]): 1.85%
IVIS (mice [4]; [14]): 1.93 × 10^6
% of organ targeting (mice [4]; [15]): 92.76%
IVIS (mice [4]; [15]): 9.67 × 10^7
IVIS (mice [4]; DMG-PEG2000:DSPC:Chol:Lipid 1.00:16.00:48.00:35.00, N/P 30, IV, body): 2.91 × 10^7
% of organ targeting (mice [4]; [16]): 15.31%
IVIS (mice [4]; [16]): 3.92 × 10^6
% of organ targeting (mice [4]; [17]): 11.64%
IVIS (mice [4]; [17]): 2.98 × 10^6
% of organ targeting (mice [4]; [18]): 73.05%
IVIS (mice [4]; [18]): 1.87 × 10^7
IVIS (mice [4]; DMG-PEG2000:DSPC:Chol:Lipid 1.47:11.16:38.97:48.40, N/P 30, IM, whole body scan): 2.83 × 10^5
tissue-targeting specificity (lung vs spleen depending on molar percentage of compound) (mice [4]): strong tissue-targeting specificity

Zeta potential (mV) [1, 19]: 13.40 mV
Zeta potential (mV) [1, 20]: 16.43 mV
PDI [3, 19]: 0.17
Particle size (nm) [3, 19]: 97.75 nm
PDI [3, 20]: 0.18
Particle size (nm) [3, 20]: 91.53 nm
Compound: CCCCCCCCCCCCNC(=O)CCN(CCC(=O)NCCCCCCCCCCCC)CCN(C)CCN(CCC(=O)NCCCCCCCCCCCC)CCC(=O)NCCCCCCCCCCCC [L0264-Control, reference compound]
% of organ targeting (mice [4]; [21]): 0.58%
IVIS (mice [4]; [21]): 1.67E+06
% of organ targeting (mice [4]; [22]): 86.18%
IVIS (mice [4]; [22]): 2.49E+08
% of organ targeting (mice [4]; [23]): 13.25%
IVIS (mice [4]; [23]): 3.82E+07
IVIS (mice [4]; mRNA LNP, 1.40:11.15:38.95:48.50, N/P 30, IM, organ not given): 1.37E+05
% of organ targeting (mice [4]; [24]): 1.25%
IVIS (mice [4]; [24]): 8.01E+05
% of organ targeting (mice [4]; [25]): 74.91%
IVIS (mice [4]; [25]): 4.81E+07
% of organ targeting (mice [4]; [26]): 23.85%
IVIS (mice [4]; [26]): 1.53E+07
IVIS (mice [4]; mRNA LNP, DMG-PEG2000:DSPC:Chol:lipid 1.00:4.00:30.00:65.00, N/P 30, IV, body): 1.10E+08
IVIS (mice [4]; mRNA LNP, DMG-PEG2000:DSPC:Chol:lipid 1.40:11.15:38.95:48.50, N/P 30, IV, body): 2.50E+07

PDI [3, 27]: 0.16 ± 0.01
Particle size [3, 27]: 127.47 ± 2.05 nm
Particle size ([3]; DMG-PEG2000:DSPC:Chol:Lipid 1.40:11.15:38.95:48.50, N/P 10, mRNA LNP, preparation given IM): 111.27 ± 0.84 nm
PDI [3, 28]: 0.06 ± 0.02
Particle size [3, 28]: 131.20 ± 1.25 nm
PDI [3, 29]: 0.09
Particle size (nm) [3, 29]: 90.08 nm
PDI [3, 5]: 0.19
Particle size (nm) [3, 5]: 65.67 nm
Compound: CCCCCCCCCCCOC(=O)CCCCCN(CCO)CCCCCCCC(=O)OC(CCCCCCCC)CCCCCCCC [SM-102, reference compound]
IVIS (mice [2]; IM): 2.06E+09
IVIS (mice [2]; IV): 1.06E+09
IVIS (mice [4]; DMG-PEG2000:DSPC:Chol:Lipid 1.40:11.15:38.95:48.50, N/P 10, IH, whole body scan): 1.62 × 10^7
IVIS (mice [4]; DMG-PEG2000:DSPC:Chol:Lipid 1.40:11.15:38.95:48.50, N/P 10, IM, whole body scan): 6.67 × 10^7
IVIS (mice [4]; DMG-PEG2000:DSPC:Chol:Lipid 1.40:11.15:38.95:48.50, N/P 10, IV, body): 1.02 × 10^8
% of organ targeting (mice [4]; [30]): 61.21%
IVIS (mice [4]; [30]): 1.99 × 10^7
% of organ targeting (mice [4]; [31]): 0.96%
IVIS (mice [4]; [31]): 3.11 × 10^5
% of organ targeting (mice [4]; [32]): 37.83%
IVIS (mice [4]; [32]): 1.23 × 10^7
tissue-targeting specificity (lung vs spleen depending on molar percentage of compound) (mice [4]): not observed
